Data published in US10611774B2, “Salt form of DPPIV inhibitor and preparation method thereof” (SHANGHAI INSTITUTE OF MATERIA MEDICA, CHINESE ACADEMY OF …, priority 2016, dated 2020).

Legend:
[1] = Pharmacokinetics in rats; type: in vivo
[2] = tested on: normal ICR mice; assay: Oral glucose tolerance of normal ICR mice; type: in vivo
[3] = Pharmacokinetics in dogs; type: in vivo
[4] = tested on: rats; assay: Subacute toxicity experiment of rats; type: in vivo; conditions: 150 mg/kg orally administrated group
[5] = tested on: ICR mice; assay: Acute toxicity test of ICR mice; type: in vivo; conditions: 300 mg/kg administration group
[6] = target: T1, DPP IV (Mus musculus, UniProt P28843); assay: Inhibition of DPP IV activity in normal mice plasma; type: in vivo
T1 construct: from tissue; host or cells: plasma of normal mice
T1 sequence (P28843 37-760 limits assumed): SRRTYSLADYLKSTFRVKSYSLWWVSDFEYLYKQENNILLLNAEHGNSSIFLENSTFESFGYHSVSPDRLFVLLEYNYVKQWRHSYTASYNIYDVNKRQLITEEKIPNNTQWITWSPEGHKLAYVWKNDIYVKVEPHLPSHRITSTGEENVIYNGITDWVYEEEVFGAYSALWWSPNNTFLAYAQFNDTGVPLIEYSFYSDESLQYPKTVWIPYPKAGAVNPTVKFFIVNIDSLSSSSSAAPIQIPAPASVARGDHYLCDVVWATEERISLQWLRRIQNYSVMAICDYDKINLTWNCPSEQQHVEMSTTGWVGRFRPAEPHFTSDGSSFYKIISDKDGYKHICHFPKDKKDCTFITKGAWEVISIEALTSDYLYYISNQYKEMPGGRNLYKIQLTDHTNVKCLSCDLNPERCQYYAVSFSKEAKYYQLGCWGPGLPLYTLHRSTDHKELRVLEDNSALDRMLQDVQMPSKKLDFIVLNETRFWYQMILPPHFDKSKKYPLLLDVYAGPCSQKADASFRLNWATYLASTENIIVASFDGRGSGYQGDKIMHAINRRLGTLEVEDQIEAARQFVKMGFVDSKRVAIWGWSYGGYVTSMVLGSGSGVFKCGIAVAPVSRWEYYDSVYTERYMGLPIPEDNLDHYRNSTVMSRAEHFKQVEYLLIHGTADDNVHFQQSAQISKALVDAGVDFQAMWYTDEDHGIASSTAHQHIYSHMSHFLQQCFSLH

[7] = tested on: ob/ob mice; assay: Fasting blood glucose of ob/ob mice, chronic administration; type: in vivo
[8] = tested on: db/db mice; assay: Fasting blood glucose of gene-deficient db/db mice, chronic administration; type: in vivo
[9] = target: DPP IV (Homo sapiens, UniProt P27487); assay: DPP IV inhibitory activity and selectivity in vitro; type: biochemical
Sequence of DPP IV (Homo sapiens, UniProt P27487) (P27487 whole entry, species assumed): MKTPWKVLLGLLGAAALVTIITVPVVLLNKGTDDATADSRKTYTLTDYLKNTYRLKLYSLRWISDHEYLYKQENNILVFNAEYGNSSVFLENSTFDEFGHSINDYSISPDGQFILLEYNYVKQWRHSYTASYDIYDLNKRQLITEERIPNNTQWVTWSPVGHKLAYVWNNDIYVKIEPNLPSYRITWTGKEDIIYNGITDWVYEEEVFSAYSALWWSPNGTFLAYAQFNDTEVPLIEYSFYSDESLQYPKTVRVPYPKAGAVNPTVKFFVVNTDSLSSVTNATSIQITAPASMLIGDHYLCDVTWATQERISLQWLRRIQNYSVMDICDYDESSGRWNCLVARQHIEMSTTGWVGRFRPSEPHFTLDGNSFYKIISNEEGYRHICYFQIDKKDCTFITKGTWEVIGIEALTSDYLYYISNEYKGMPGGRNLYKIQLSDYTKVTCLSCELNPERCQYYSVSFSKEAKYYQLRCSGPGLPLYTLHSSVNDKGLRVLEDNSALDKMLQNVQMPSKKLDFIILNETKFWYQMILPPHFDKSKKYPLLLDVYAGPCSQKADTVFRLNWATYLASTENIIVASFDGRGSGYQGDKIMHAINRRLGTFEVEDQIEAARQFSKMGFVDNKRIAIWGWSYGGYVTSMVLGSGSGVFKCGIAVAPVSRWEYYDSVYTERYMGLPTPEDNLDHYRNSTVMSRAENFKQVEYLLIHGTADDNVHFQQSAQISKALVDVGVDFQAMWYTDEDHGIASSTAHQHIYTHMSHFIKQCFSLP

[10] = target: T2, DPP IV (Rattus norvegicus, UniProt P14740); assay: Inhibition of DPP IV activity in normal rat plasma; type: in vivo
T2 construct: from tissue; host or cells: plasma of normal rats
T2 sequence (P14740 37-767 limits assumed): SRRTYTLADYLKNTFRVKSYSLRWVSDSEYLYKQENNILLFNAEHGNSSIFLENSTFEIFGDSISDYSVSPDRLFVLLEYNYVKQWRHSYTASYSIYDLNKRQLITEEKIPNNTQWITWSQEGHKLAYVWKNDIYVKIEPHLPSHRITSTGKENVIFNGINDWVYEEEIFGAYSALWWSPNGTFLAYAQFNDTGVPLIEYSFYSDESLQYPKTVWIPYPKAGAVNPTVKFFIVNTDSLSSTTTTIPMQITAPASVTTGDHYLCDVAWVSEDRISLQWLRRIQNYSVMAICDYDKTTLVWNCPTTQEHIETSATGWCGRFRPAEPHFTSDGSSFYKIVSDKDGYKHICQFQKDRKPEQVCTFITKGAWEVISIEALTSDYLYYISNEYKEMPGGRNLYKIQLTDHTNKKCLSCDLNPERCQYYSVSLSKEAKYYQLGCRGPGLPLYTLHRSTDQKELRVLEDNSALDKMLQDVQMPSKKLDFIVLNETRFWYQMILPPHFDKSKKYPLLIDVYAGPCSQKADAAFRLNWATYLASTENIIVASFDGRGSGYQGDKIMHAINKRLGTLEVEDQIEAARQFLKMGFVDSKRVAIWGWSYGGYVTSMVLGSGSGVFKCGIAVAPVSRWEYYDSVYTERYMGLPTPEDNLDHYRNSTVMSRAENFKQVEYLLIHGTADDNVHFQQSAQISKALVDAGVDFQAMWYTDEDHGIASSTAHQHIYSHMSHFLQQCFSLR

[11] = Hygroscopicity analysis (DVS); type: physicochemical; conditions: for hygroscopicity (DVS): 25° C.; for water absorbed: at 80% RH; for humidity variation range: conventional storage humidity range
Description: Dynamic vapor absorption (DVS) test/water absorption test rapidly measures the increase and loss of the moisture in the sample caused by flow carrier gas with set relative humidity (RH), wherein the sample is placed on a digital microbalance with high sensitivity and high stability at a self-suspension state, and then the adsorption/desorption of water vapor is measured by measuring the increase/decrease of mass of the material, thereby determining the hygroscopicity of the sample.
In the present invention, the test parameters of the DVS are as follows: Instrument type: SMS DVS Intrinsic; Non-hydrate: 0 to 95%-0% RH; Temperature: 25° C.; Hydrate: 40 to 95%-0% RH; Temperature: 25° C.

[12] = versus sitagliptin and vildagliptin

In the case of COC(=O)c1cc2nc(N3CCC[C@@H](N)C3)n(Cc3ccccc3C#N)c(=O)c2s1 [compound of formula I, (R)-methyl-2-(3-aminopiperidin-1-yl)-3-(2-cyanobenzyl)-4-carbonyl-3,4-dihydrothiophene[3,2-d]pyrimidine-6-carboxylic acid], the “AUC0-t compared with alogliptin” value [1] is reported as “superior to those of the marketed drug alogliptin”, the “half-life compared with alogliptin” value [1] is reported as “superior to those of the marketed drug alogliptin” and the “effect on oral glucose tolerance” value [2] is reported as “increase the oral glucose tolerance of normal ICR mice in a dose-dependent manner”. The “onset dose, oral glucose tolerance” value [2] was 0.1 mg/kg, the “oral glucose tolerance effect compared with alogliptin” value [2] was “better than alogliptin” and the “AUC0-t compared with alogliptin” value [3] was “superior to those of the marketed drug alogliptin”. The “half-life compared with alogliptin” value [3] was “superior to those of the marketed drug alogliptin”, the subacute toxicity [4] was “no obvious toxicity reaction” and the “acute toxicity, animal death” value [5] was “no animal died”. The “DPP IV inhibitory activity in animals compared with alogliptin” value [6] was “superior to the marketed drug alogliptin”, the “inhibition of DPP IV activity in plasma” value [6] was “effective in inhibiting DPP IV activity” and the “effect on fasting blood glucose” value [7] was “effectively decrease fasting blood glucose”. The “fasting blood glucose effect compared with positive control alogliptin” value [7] was “superior to the positive control drug alogliptin”, the “effect on fasting blood glucose” value [8] was “reduce its fasting blood glucose” and the “fasting blood glucose effect compared with positive control alogliptin” value [8] was “comparable to the positive control drug alogliptin”. For the same molecule, the “DPP IV inhibitory activity” value ([9]; in vitro) was “up to nanomolar level”, the “DPP IV inhibitory activity in vitro compared with marketed drugs” value [9, 12] was “superior to the marketed drugs, sitagliptin and vildagliptin” and the “selectivity in vitro compared with marketed drugs” value [9, 12] was “superior to the marketed drugs, sitagliptin and vildagliptin”. The “DPP IV inhibitory activity in animals compared with alogliptin” value [10] was “superior to the marketed drug alogliptin” and the “inhibition of DPP IV activity in plasma” value [10] was “effective in inhibiting DPP IV activity”.
With COC(=O)c1cc2nc(N3CCC[C@@H](N)C3)n(Cc3ccccc3C#N)c(=O)c2s1.Cl [hydrochloride, hydrochloride of (R)-methyl-2-(3-aminopiperidin-1-yl)-3-(2-cyanobenzyl)-4-carbonyl-3,4-dihydrothiophene [3,2-d] pyrimidine-6-carboxylic acid] the “hygroscopicity (DVS)” value [11] was “slightly hygroscopic”, the water absorbed [11] was 2.54% and the humidity variation range [11] was “less than 3.0%”.
For COC(=O)c1cc2nc(N3CCC[C@@H](N)C3)n(Cc3ccccc3C#N)c(=O)c2s1.O=C(O)/C=C\C(=O)O [maleate, maleate of (R)-methyl-2-(3-aminopiperidin-1-yl)-3-(2-cyanobenzyl)-4-carbonyl-3,4-dihydrothiophene[3,2-d]pyrimidine-6-carboxylic acid], the “hygroscopicity (DVS)” value [11] was “slightly hygroscopicity”, the water absorbed [11] was 1.57% and the humidity variation range [11] was “less than 2.0%”.
With COC(=O)c1cc2nc(N3CCC[C@@H](N)C3)n(Cc3ccccc3C#N)c(=O)c2s1.O=P(O)(O)O [phosphate, phosphate of (R)-methyl-2-(3-aminopiperidin-1-yl)-3-(2-cyanobenzyl)-4-carbonyl-3,4-dihydrothiophene[3,2-d]pyrimidine-6-carboxylic acid] the “hygroscopicity (DVS)” value [11] was “slightly hygroscopic” and the humidity variation range [11] was “small”.
In the case of “glycolate of (R)-methyl-2-(3-aminopiperidin-1-yl)-3-(2-cyanobenzyl)-4-carbonyl-3,4-dihydrothiophene[3,2-d]pyrimidine-6-carboxylic acid”, the “hygroscopicity (DVS)” value [11] is reported as “slightly hygroscopic”, the water absorbed [11] is reported as 1.23% and the humidity variation range [11] is reported as “less than 2.0%”.
